Results on four molecules are retold here after patent US20050192221A1, “Methods and compositions related to plunc polypeptides” (priority 2003, published 2005).

In brackets after ≈: the same amount, converted by molar mass. Several values for one entry are separate records, joined by “and”; a condition that tells them apart may be missing. Equal values may be shown once. Entries after “also recorded” stand apart in the source; their conditions may differ. Read-outs that look alike come from different tables or passages of the source.

Test [1] deals with Bacillus spp. The note with it: cited from earlier work.
Test [2] relates to Bacteroides fragilis. The note with it: cited from earlier work.
Test [3] deals with Bordetella bronchiseptica. To be noted: cited from earlier work.
Test [4] deals with Borrelia burgdorferi. To be noted: unit assumed; cited from earlier work.
Test [5] deals with Branhamella (Moraxella) catarrhalis. To be noted: Branhamella (Moraxella) catarrhalis (β-lactamase producer); in µg/mL (unit assumed); cited from earlier work.
The subject of test [6] is Campylobacter jejuni. The note with it: in µg/mL (unit assumed); cited from earlier work.
In test [7] the test system is Campylobacter pylori. The note with it: cited from earlier work.
For test [8], the system named is Enterococcus faecium. The note with it: unit assumed; cited from earlier work.
Test [9] has as its system Enterococcus spp. The note with it: unit assumed; cited from earlier work.
The subject of test [10] is Haemophilus ducreyi. The note with it: unit assumed; cited from earlier work.
Test [11] has as its system Haemophilus influenzae. The note with it: in µg/mL (unit assumed), cited from earlier work.
In test [12] the test system is Haemophilus parainfluenzae. To be noted: cited from earlier work.
Test [13] concerns Listeria monocytogenes. To be noted: unit assumed; cited from earlier work.
The test system of test [14] is Neisseria gonorrhoeae. To be noted: in µg/mL (unit assumed), cited from earlier work.
Test [15] concerns Neisseria meningitidis. To be noted: cited from earlier work.
For test [16], the system named is Staphylococcus aureus. The note with it: cited from earlier work; for MIC50 / MIC90: unit assumed.
Test [17] deals with Streptococcus agalactiae. To be noted: cited from earlier work.
Test [18] relates to Streptococcus pneumoniae. To be noted: in µg/mL (unit assumed); cited from earlier work.
Test [19] has as its system Streptococcus pyogenes. To be noted: in µg/mL (unit assumed); cited from earlier work.
For test [20], the system named is Streptococcus spp. To be noted: unit assumed; cited from earlier work.
The subject of test [21] is Mycoplasma hominis. To be noted: cited from earlier work.
Test [22] has as its system Mycoplasma pneumoniae. To be noted: cited from earlier work.
Test [23] has as its system TLR4 mediated signaling in human umbilical vein endothelial cells (HUVECS). The test can be described thus: LOS stimulated IL-8 release from HUVECS. In kind it is cell-based. The note with it: HUVECs treated overnight with LOS aggregates (3 ng/ml), soluble CD14 (250 ng/ml), LBP (100 ng/ml); ASL washings or supernatants of transfected 293 cells. An excerpt:
FIGS. 2A-2B. Effects of airway surface liquid (ASL), PLUNC, and LPLUNC1 on TLR4 mediated signaling in human umbilical vein endothelial cells (HUVECS). HUVECS in a 24 well dish were exposed to LOS from N. Meningitidis overnight in the presence of SCD14 and LBP. […] Control=media alone. […] Control cells were transfected with a plasmid expressing GFP. The transfection efficiency, based on GFP expression was >75%.
Alternatively, the inventors also consider the possibility that the properties of the proteins may be LBP-like and that their function may depend on the available concentrations. The ability of ASL to inhibit TLR4-mediated signaling in response to N. meningitis lipooligosaccharide (LOS) was tested in human umbilical vein endothelial cells (HUVECs) (Giardina et al., 2001). ASL secretions were recovered from the apical surface of primary cultures of human airway epithelia grown in serum free media by washing the surface with PBS. As show in FIG. 2A, HUVECs treated overnight with LOS aggregates (3 ng/ml) in the presence of soluble CD14 (250 ng/ml) and LBP (100 ng/ml) released significant quantities of IL-8 into the cell culture media. […] To determine whether PLUNC and/or LPLUNC1 have similar effects on TLR4 signaling, the inventors expressed their cDNAs in 293 cells grown in serum free media and harvested supernatants 48 hr following transfection.

Test [24] concerns endotoxin from E. coli 0111:B4. Briefly: Limulus amebocyte lysate assay, endotoxin spiked with serial dilutions. The note with it: 30 ng E. coli endotoxin/well spiked with serial dilutions of ASL washings or supernatant from LPLUNC1 transfected 293 cells. In kind it is biochemical. The protocol:
FIG. 3. ASL and LPLUNC1 inhibit endotoxin activity in the Limulus amebocyte lysate assay. Endotoxin activity contrasted in control media (closed circles, 30 ng E. coli endotoxin/well), or 30 ng endotoxin samples spiked with serial dilutions of ASL washings (closed squares) or cell culture supernatant from LPLUNC1 transfected 293 cells (closed diamonds). 10 EU=1 ng endotoxin.
As confirmation of the endotoxin binding activities of ASL secretions and expressed LPLUNC1, an additional assay was performed. The Limulus amebocyte lystate assay (QCL-1000; BioWhittaker, Walkersville, Md.) was used to determine if these samples inhibited endotoxin activity in this extremely sensitive laboratory test. Lyophilized standard endotoxin from E. coli 0111:B4 in sterile water (chromogenic substrate) was spiked with serial dilutions of ASL washings, or supernatants from LPLUNC1 transfected cells. Endotoxin concentrations were determined by measuring the change in absorbance at 405 nm, as described previously (Thorne et al., 1999).

The test system of test [25] is LOS. The test can be described thus: Limulus amebocyte lysate assay, detected LOS. In kind it is biochemical. The note with it: proteins from cell free in vitro translation (RTS) or HeLa supernatants, dilutions 1:1 to 1:8; 0.1 ng/ml LOS.
The test system of test [26] is human peripheral blood mononuclear cells stimulated by N. meniningititis lipo-oligosaccharide (LOS). Briefly: LOS stimulation of human peripheral blood mononuclear cells. The note with it: baculovirus culture supernatants, N-terminal tagged proteins, 10 ng/ml N. meniningititis LOS. In kind it is cell-based.
Test [27] is classed as binding, N. meningitidis. The note with it: recombinant LPLUNC1 C-terminal 6HIS incubated with 14C-LOS for 1 hr; versus Ad empty control supernatant.
Setting [28] is: Haemophilus influenzae (non β-lactamase producer).
The mark [29] stands for this setting: Haemophilus influenzae (penicillin resistant).
Setting [30] is: Haemophilus influenzae (penicillin susceptible).
The mark [31] stands for this setting: Haemophilus influenzae (β-lactamase producer).
[32] abbreviates: Neisseria gonorrhoeae (non β-lactamase producer).
Where [33] appears, read: Staphylococcus aureus (penicillin susceptible).

With `CC[C@H]1OC(=O)[C@H](C)[C@@H](O[C@H]2C[C@@](C)(OC)[C@@H](O)[C@H](C)O2)[C@H](C)[C@@H](O[C@@H]2O[C@H](C)C[C@H](N(C)C)[C@H]2O)[C@](C)(O)C[C@@H](C)C(=O)[C@H](C)[C@@H](O)[C@]1(C)O` [ERYTHROMYCIN, erythromycin], the “Range (of MIC)” value in test [1] (in µg/mL (unit assumed)) is 0.03-2; in [2] (in µg/mL (unit assumed)), 0.25-16; in test [3] (in µg/mL (unit assumed)), 4-32; in test [5], 0.06-1 and 0.03-0.25 and 0.06-8; in [6] it was 0.5-8; in test [7] (in µg/mL (unit assumed)), 0.25-16. For the same molecule, the “Range (of MIC)” value is 8-16 in test [11] (setting [29]); 0.25-16 in [11] (setting [30]); 0.5-8 in test [11] (Haemophilus influenzae); 0.5-8 in test [12] (in µg/mL (unit assumed)); 0.03-2 and 0.015-4 in test [14] (setting [32]); 0.0075-8 in test [14] (Neisseria gonorrhoeae). Further, the “Range (of MIC)” value is 0.5-8 in test [15] (in µg/mL (unit assumed)); 0.03-0.25 and 0.015-0.06 in test [17] (in µg/mL (unit assumed)); 0.03-0.25 and 0.015-0.06 and 0.015-0.25 in [18]. The MIC90 in test [1] (unit assumed) was 2 µg/mL (≈ 2.73 µM); in [2] (unit assumed) it was 8 µg/mL (≈ 10.9 µM); in test [3] (unit assumed) it was 32 µg/mL (≈ 43.6 µM); in [4], 0.06 µg/mL (≈ 0.0818 µM); in test [6], 4 and 2; in [10], 0.06 µg/mL (≈ 0.0818 µM). Besides, the MIC90 in test [11] (setting [28]) is 4 and 8; in [11] (setting [29]) it was 16; in test [11] (setting [30]), 16; in test [11] (setting [31]), 8 and 4; in test [11] (Haemophilus influenzae) it was 2 and 4; in test [12] (unit assumed) it was 4 µg/mL (≈ 5.45 µM). Further, the MIC90 in test [14] (setting [32]) was 1 and 2; in [14] (Neisseria gonorrhoeae (β-lactamase producer)), 2 and 4; in [14] (Neisseria gonorrhoeae), 1; in test [15] (unit assumed) it was 8 µg/mL (≈ 10.9 µM); in test [16] (setting [33]) it was 0.5 µg/mL (≈ 0.681 µM); in test [17] (unit assumed), 0.03 µg/mL (≈ 0.0409 µM). Also, in test [18], the MIC90 was 0.03 and 0.06. In addition, the MIC50 in [2] (unit assumed) was 1 µg/mL (≈ 1.36 µM); in test [3] (unit assumed) it was 8 µg/mL (≈ 10.9 µM); in test [4] it was 0.03 µg/mL (≈ 0.0409 µM); in [7] (unit assumed), 0.5 µg/mL (≈ 0.681 µM); in test [8] it was 1 µg/mL (≈ 1.36 µM); in [9] it was 2 µg/mL (≈ 2.73 µM). Also, the MIC50 is 0.004 µg/mL (≈ 0.00545 µM) in [10]; 2 and 4 in test [11] (setting [28]); 8 in [11] (setting [29]); 8 in test [11] (setting [30]); 4 and 2 in test [11] (setting [31]); 2 and 1 in [11] (Haemophilus influenzae). For the same molecule, the MIC50 in test [12] (unit assumed) is 2 µg/mL (≈ 2.73 µM); in [13], 0.5 µg/mL (≈ 0.681 µM); in [15] (unit assumed), 1 µg/mL (≈ 1.36 µM); in test [16] (Staphylococcus aureus (methicillin susceptible)), 0.5 µg/mL (≈ 0.681 µM); in test [16] (setting [33]), 0.5 µg/mL (≈ 0.681 µM); in test [16] (Staphylococcus aureus), 0.5 µg/mL (≈ 0.681 µM). Further, the MIC50 was 0.03 µg/mL (≈ 0.0409 µM) in [17] (unit assumed); 0.06 and 0.03 in [18]; 0.06 and 0.03 in [19]; 0.03 µg/mL (≈ 0.0409 µM) in test [20].

For the molecule `CCC[C@@H]1C[C@@H](C(=O)N[C@@H]([C@H]2O[C@H](SC)[C@H](O)[C@@H](O)[C@H]2O)[C@@H](C)O)N(C)C1` [LINCOMYCIN, lincomycin], the “Range (of MIC)” value in test [21] (in µg/mL (unit assumed)) is on record as 0.5-16; in [22] (in µg/mL (unit assumed)) it was 2-32; in test [16] (Staphylococcus aureus, in µg/mL (unit assumed)), 0.5-512. For the same molecule, the MIC50 in test [21] (unit assumed) was 2 µg/mL (≈ 4.92 µM); in test [22] (unit assumed), 8 µg/mL (≈ 19.7 µM); in test [16] (Staphylococcus aureus) it was 1 µg/mL (≈ 2.46 µM). In addition, the figures for the MIC90 in test [21] (unit assumed), in [22] (unit assumed) and in test [16] (Staphylococcus aureus) were 4 µg/mL (≈ 9.84 µM), 32 µg/mL (≈ 78.7 µM) and 1 µg/mL (≈ 2.46 µM), respectively.

B1: LPLUNC1: human long PLUNC protein, 484 amino acids; tested as recombinant culture supernatant, in vitro translation product or 6HIS tagged protein (protein, UniProt Q8TDL5 22-484, looked up)
BPI fold-containing family B …: TLSPTAVLILGPKVIKEKLTQELKDHNATSILQQLPLLSAMREKPAGGIPVLGSLVNTVLKHIIWLKVITANILQLQVKPSANDQELLVKIPLDMVAGFNTPLVKTIVEFHMTTEAQATIRMDTSASGPTRLVLSDCATSHGSLRIQLLHKLSFLVNALAKQVMNLLVPSLPNLVKNQLCPVIEASFNGMYADLLQLVKVPISLSIDRLEFDLLYPAIKGDTIQLYLGAKLLDSQGKVTKWFNNSAASLTMPTLDNIPFSLIVSQDVVKAAVAAVLSPEEFMVLLDSVLPESAHRLKSSIGLINEKAADKLGSTQIVKILTQDTPEFFIDQGHAKVAQLIVLEVFPSSEALRPLFTLGIEASSEAQFYTKGDQLILNLNNISSDRIQLMNSGIGWFQPDVLKNIITEIIHSILLPNQNGKLRSGVPVSLVKALGFEAAESSLTKDALVLTPASLWKPSSPVSQ
For B1, the “effect on LOS stimulated IL-8 release from HUVECS” value in test [23] is on record as “dampened IL-8 secretion”. In test [24], the “inhibition of endotoxin activity” value is given as “inhibited endotoxin activity in a dose dependent fashion”. In addition, the “detectable level of LOS” value in test [25] is “dose-dependent decrease in detected LOS”. The “effect on responsiveness of PBMC to LOS stimulation” value in [26] is reported as “BPI-like inhibitory effects; also recorded: dampened the proinflammatory effect of LOS”. In addition, the “14C-LOS recovered with nickel resin” value in test [27] was “Significantly more LOS was recovered”.

B2: PLUNC: human palate, lung, and nasal epithelium clone protein, 256 amino acids; tested as recombinant culture supernatant or in vitro translation product (protein, UniProt Q9NP55 20-256, looked up)
BPI fold-containing family A …: QFGGLPVPLDQTLPLNVNPALPLSPTGLAGSLTNALSNGLLSGGLLGILENLPLLDILKPGGGTSGGLLGGLLGKVTSVIPGLNNIIDIKVTDPQLLELGLVQSPDGHRLYVTIPLGIKLQVNTPLVGASLLRLAVKLDITAEILAVRDKQERIHLVLGDCTHSPGSLQISLLDGLGPLPIQGLLDSLTGILNKVLPELVQGNVCPLVNEVLRGLDITLVHDIVNMLIHGLQFVIKV
Turning to B2, the “effect on LOS stimulated IL-8 release from HUVECS” value in [23] is “dampened IL-8 secretion”. Also, the “detectable level of LOS” value in test [25] is “dose-dependent decrease in detected LOS”. Also, the “effect on responsiveness of PBMC to LOS stimulation” value in test [26] is “LBP-like pro-inflammatory activity”; in [26] (listed as SPLUNC1) it was “enhanced the LOS signaling”.
